The text below walks through data of patent publication US9770445B2, “Sulfoximine substituted 5-fluoro-N-(pyridin-2-yl)pyridin-2-amine derivatives and their use as CDK9 kinase inhibitors” (BAYER PHARMA AKTIENGESELLSCHAFT, priority 2013, dated 2017).

The target of assay [1] is T1, CDK2/CycE (Homo sapiens, UniProt P24941).
T1 construct: GST; purchased ProQinase GmbH (Freiburg, Germany); host or cells: insect cells (Sf9)
Kind of assay: CDK2/CycE kinase assay (Method 2, TR-FRET). Type of assay: biochemical. The following applies: Method 2, 10 μM ATP. The text has this:
2. CDK2/CycE Kinase Assay:
CDK2/CycE-inhibitory activity of compounds of the present invention was quantified employing the CDK2/CycE TR-FRET assay as described in the following paragraphs:
Recombinant fusion proteins of GST and human CDK2 and of GST and human CycE, expressed in insect cells (Sf9) and purified by Glutathion-Sepharose affinity chromatography, were purchased from ProQinase GmbH (Freiburg, Germany). As substrate for the kinase reaction biotinylated peptide biotin-Ttds-YISPLKSPYKISEG (C-terminus in amid form) was used which can be purchased e.g. form the company JERINI Peptide Technologies (Berlin, Germany).
(§1) For the assay 50 nl of a 100 fold concentrated solution of the test compound in DMSO was pipetted into a black low volume 384 well microtiter plate (Greiner Bio-One, Frickenhausen, Germany), 2 μl of a solution of CDK2/CycE in aqueous assay buffer [50 mM Tris/HCl pH 8.0, 10 mM MgCl2, 1.0 mM dithiothreitol, 0.1 mM sodium ortho-vanadate, 0.01% (v/v) Nonidet-P40 (Sigma)] were added and the mixture was incubated for 15 min at 22° C. to allow pre-binding of the test compounds to the enzyme before the start of the kinase reaction. Then the kinase reaction was started by the addition of 3 μl of a solution of adenosine-tri-phosphate (ATP, 16.7 μM=>final conc. in the 5 μl assay volume is 10 μM) and substrate (1.25 μM=>final conc. in the 5 μl assay volume is 0.75 μM) in assay buffer and the resulting mixture was incubated for a reaction time of 25 min at 22° C. The concentration of CDK2/CycE was adjusted depending of the activity of the enzyme lot and was chosen appropriate to have the assay in the linear range, typical concentrations were in the range of 130 ng/mL. The reaction was stopped by the addition of 5 μl of a solution of TR-FRET detection reagents (0.2 μM streptavidine-XL665 [Cisbio Bioassays, Codolet, France] and 1 nM anti-RB(pSer807/pSer811)-antibody from BD Pharmingen [#558389] and 1.2 nM LANCE EU-W1024 labeled anti-mouse IgG antibody [Perkin-Elmer, product no. AD0077]) in an aqueous EDTA-solution (100 mM EDTA, 0.2% (w/v) bovine serum albumin in 100 mM HEPES/NaOH pH 7.0).
(§2) The resulting mixture was incubated 1 h at 22° C. to allow the formation of complex between the phosphorylated biotinylated peptide and the detection reagents. Subsequently the amount of phosphorylated substrate was evaluated by measurement of the resonance energy transfer from the Eu-chelate to the streptavidine-XL. Therefore, the fluorescence emissions at 620 nm and 665 nm after excitation at 350 nm was measured in a TR-FRET reader, e.g. a Rubystar (BMG Labtechnologies, Offenburg, Germany) or a Viewlux (Perkin-Elmer). The ratio of the emissions at 665 nm and at […] was taken as the measure for the amount of phosphorylated substrate. The data were normalised (enzyme reaction without inhibitor=0% inhibition, all other assay components but no enzyme=100% inhibition).
A general note: Time-resolved FRET reads energy transfer from a long-lived donor to a nearby acceptor.

The target of assay [2] is T2, CDK9/CycT1 (Homo sapiens, UniProt P50750).
T2 construct: Recombinant full-length His-tagged human CDK9 and CycT1; His; purchased Invitrogen PV4131; host or cells: insect cells
T2 sequence (P50750 whole entry): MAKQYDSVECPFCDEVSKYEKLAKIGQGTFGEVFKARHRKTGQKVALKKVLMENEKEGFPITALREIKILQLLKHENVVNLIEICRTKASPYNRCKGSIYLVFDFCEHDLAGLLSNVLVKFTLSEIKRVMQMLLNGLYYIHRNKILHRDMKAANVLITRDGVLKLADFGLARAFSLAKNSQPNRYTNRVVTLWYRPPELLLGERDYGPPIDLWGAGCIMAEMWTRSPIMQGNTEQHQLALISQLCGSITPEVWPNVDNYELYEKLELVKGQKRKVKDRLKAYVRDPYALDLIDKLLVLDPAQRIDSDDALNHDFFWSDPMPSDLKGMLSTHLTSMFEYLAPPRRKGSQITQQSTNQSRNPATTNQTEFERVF
T2 sequence (O60563 whole entry partner): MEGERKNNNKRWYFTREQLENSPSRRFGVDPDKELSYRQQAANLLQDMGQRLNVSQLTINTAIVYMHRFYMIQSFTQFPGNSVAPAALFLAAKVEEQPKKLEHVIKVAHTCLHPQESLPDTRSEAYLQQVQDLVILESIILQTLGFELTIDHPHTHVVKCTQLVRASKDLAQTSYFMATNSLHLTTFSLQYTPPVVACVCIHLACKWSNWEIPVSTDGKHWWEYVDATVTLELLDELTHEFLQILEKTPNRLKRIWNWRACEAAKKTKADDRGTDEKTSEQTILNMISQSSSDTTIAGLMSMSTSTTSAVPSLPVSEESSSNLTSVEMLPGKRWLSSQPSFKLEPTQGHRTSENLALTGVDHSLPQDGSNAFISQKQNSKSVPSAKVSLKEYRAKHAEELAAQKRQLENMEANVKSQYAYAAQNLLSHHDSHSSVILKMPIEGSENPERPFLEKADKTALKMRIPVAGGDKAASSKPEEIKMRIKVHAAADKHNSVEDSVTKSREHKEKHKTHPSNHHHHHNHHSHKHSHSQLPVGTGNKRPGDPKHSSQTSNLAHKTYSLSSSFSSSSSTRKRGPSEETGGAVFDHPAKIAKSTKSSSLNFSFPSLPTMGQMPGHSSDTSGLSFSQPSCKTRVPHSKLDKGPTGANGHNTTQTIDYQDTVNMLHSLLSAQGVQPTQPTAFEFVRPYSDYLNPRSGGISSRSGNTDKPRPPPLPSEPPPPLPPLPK
Nature of the assay: CDK9/CycT1 kinase assay (Method 1a, TR-FRET). It counts as biochemical. To be noted: for IC50: Method 1a, 10 μM ATP; for Selectivity CDK9 over CDK2: IC50 (CDK2)/IC50 (CDK9): ratio of Method 2 to Method 1a values.
From the text: 1a. CDK9/CyeT1 Kinase Assay:
CDK9/CycT1-inhibitory activity of compounds of the present invention was quantified employing the CDK9/CycT1 TR-FRET assay as described in the following paragraphs:
as §1, with “Recombinant full-length His-tagged human CDK9 and CycT1, expressed in insect cells and purified by Ni-NTA affinity chromatography, were purchased from Invitrogen (Cat. No PV4131). As substrate for the kinase reaction biotinylated peptide biotin-Ttds-YISPLKSPYKISEG (C-terminus in amid form) was used which can be purchased e.g. form the company JERINI Peptide Technologies (Berlin, Germany). For” for “For”, “CDK9/CycT1” for “CDK2/CycE”, “(1.67” for “(1.25”, “1” for “0.75”, “1 μg/mL.” for “130 ng/mL.”
as §2, with “HTRF” for “TR-FRET”

A word on the IC50: it is the midpoint of a concentration-inhibition curve. A high value points to weaker potency in that assay. Regarding `CC(=O)N=S(C)(=O)Cc1ccnc(Nc2cc(-c3ccc(F)c4ccoc34)c(F)cn2)c1` (racemic) [Example 10, (rac)-N-{[(2-{[5-fluoro-4-(4-fluoro-1-benzofuran-7-yl)pyridin-2-yl]amino}pyridin-4-yl)methyl](methyl)oxido-λ^6-sulfanylidene}acetamide], the IC50 in assay [1] stood at 0.166 µM; in assay [2], 0.0027 µM. The “Selectivity CDK9 over CDK2: IC50 (CDK2)/IC50 (CDK9)” value in assay [2] amounted to 61.
In the same order, the values of `CS(=O)(Cc1ccnc(Nc2cc(-c3ccc(F)c4ccoc34)c(F)cn2)c1)=NC(=O)C(F)(F)F` (racemic) [Example 6, (rac)-2,2,2-Trifluoro-N-{[(2-{[5-fluoro-4-(4-fluoro-1-benzofuran-7-yl)pyridin-2-yl]amino}pyridin-4-yl)methyl](methyl)oxido-λ^6-sulfanylidene}acetamide] are 0.54 µM, 0.0049 µM and 110.
Taken in the same sequence, the figures for `CCNC(=O)N=S(C)(=O)Cc1ccnc(Nc2cc(-c3ccc(F)c4ccoc34)c(F)cn2)c1` (racemic) [Example 12, (rac)-1-Ethyl-3-{[(2-{[5-fluoro-4-(4-fluoro-1-benzofuran-7-yl)pyridin-2-yl]amino}pyridin-4-yl)methyl](methyl)oxido-λ^6-sulfanylidene}urea] were 0.113 µM, 0.0026 µM and 44.
In the same order, the values of `CCOC(=O)N=S(C)(=O)Cc1ccnc(Nc2cc(-c3ccc(F)c4ccoc34)c(F)cn2)c1` (racemic) [Example 11, (rac)-Ethyl {[(2-{[5-fluoro-4-(4-fluoro-1-benzofuran-7-yl)pyridin-2-yl]amino}pyridin-4-yl)methyl](methyl)oxido-λ^6-sulfanylidene}carbamate] are 0.138 µM, 0.0031 µM and 45.
In the case of `CS(=N)(=O)Cc1ccnc(Nc2cc(-c3ccc(F)c4ccoc34)c(F)cn2)c1` (racemic) [Example 5, (rac)-5-Fluoro-4-(4-fluoro-1-benzofuran-7-yl)-N-{4-[(S-methylsulfonimidoyl)methyl]pyridin-2-yl}pyridin-2-amine], inhibition in assay [1] was half-maximal at 0.13 µM (IC50). Further, in assay [2], the IC50 stood at 0.0034 µM and the “Selectivity CDK9 over CDK2: IC50 (CDK2)/IC50 (CDK9)” value came to 38.
